Blank lines part the entries; values can stand above or below the molecule they belong to.
What was measured:
Assay in all cases: radiometric filter-binding kinase assay
ABL1 (human) = ABL1 (human) (UniProt P00519)
CSNK1G2 (human) = CSNK1G2 (human) (UniProt P78368)
DDR2 (human) = DDR2 (human) (UniProt Q16832)
EIF2AK3 (human) = EIF2AK3 (human) (UniProt Q9NZJ5)
IRAK1 (human) = IRAK1 (human) (UniProt P51617)
MAP4K3 (human) = MAP4K3 (human) (UniProt Q8IVH8)
MAP4K5 (human) = MAP4K5 (human) (UniProt Q9Y4K4)
MAPK7 (human) = MAPK7 (human) (UniProt Q13164)
Chain of MAPK7 (human) (Q13164 whole entry, looked up): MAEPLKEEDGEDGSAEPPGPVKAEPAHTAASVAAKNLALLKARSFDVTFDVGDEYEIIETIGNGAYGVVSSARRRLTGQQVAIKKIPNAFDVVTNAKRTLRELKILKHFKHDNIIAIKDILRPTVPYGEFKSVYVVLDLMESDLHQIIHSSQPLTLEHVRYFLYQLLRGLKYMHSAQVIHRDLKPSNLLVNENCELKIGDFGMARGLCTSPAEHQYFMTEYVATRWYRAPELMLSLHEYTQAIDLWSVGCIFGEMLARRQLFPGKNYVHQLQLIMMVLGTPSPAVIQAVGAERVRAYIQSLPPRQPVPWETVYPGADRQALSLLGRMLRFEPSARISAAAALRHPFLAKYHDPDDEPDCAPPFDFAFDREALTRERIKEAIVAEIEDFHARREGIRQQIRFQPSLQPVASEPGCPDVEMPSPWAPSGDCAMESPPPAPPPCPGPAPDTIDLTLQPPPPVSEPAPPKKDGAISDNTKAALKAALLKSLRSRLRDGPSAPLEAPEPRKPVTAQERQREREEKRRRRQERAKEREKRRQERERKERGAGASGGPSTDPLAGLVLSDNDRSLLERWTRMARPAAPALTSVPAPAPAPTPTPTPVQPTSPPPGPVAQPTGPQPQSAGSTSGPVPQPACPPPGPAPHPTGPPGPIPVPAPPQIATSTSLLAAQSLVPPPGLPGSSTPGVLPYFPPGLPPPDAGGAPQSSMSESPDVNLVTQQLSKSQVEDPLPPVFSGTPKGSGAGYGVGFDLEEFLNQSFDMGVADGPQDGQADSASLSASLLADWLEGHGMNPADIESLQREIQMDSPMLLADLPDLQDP

MYLK (human) = MYLK (human) (UniProt Q15746)
[1] = test system: OXSR1 (human), O95747 [T185E]
Chain of OXSR1 (human), O95747 [T185E] (O95747 whole entry T185E, looked up): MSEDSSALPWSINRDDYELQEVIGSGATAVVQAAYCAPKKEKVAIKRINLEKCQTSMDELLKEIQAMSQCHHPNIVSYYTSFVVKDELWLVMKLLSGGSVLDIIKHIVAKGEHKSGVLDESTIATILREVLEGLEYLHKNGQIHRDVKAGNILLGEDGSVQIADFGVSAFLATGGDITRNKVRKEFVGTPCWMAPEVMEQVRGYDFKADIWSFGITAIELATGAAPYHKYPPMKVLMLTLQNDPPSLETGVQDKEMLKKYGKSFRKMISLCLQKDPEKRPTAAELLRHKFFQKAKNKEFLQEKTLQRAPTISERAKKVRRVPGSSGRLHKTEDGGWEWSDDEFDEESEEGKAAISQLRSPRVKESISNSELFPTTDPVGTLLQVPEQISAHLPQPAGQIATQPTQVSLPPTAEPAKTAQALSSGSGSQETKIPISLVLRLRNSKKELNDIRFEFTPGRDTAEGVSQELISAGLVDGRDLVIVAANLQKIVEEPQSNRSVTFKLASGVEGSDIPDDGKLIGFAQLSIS

PDGFRA (human) = PDGFRA (human) (UniProt P16234)
[2] = target: PRKAA1 PRKAB2 PRKAG1 (human) (UniProt O43741+Q13131+P54619)
PRKCG (human) = PRKCG (human) (UniProt P05129)
PTK6 (human) = PTK6 (human) (UniProt Q13882)
SIK2 (human) = SIK2 (human) (UniProt Q9H0K1)
SIK3 (human) = SIK3 (human) (UniProt Q9Y2K2)
STK16 (human) = STK16 (human) (UniProt O75716)
Chain of STK16 (human) (O75716 whole entry, looked up): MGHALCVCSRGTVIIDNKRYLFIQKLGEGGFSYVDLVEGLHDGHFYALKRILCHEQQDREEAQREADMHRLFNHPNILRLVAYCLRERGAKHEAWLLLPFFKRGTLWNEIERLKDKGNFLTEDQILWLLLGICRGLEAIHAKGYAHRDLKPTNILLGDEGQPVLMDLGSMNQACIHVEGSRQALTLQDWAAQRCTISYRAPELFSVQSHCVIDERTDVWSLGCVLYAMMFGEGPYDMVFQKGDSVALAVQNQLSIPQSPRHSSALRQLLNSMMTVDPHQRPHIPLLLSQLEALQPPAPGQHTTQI

STK24 (human) = STK24 (human) (UniProt Q9Y6E0)
STK33 (human) = STK33 (human) (UniProt Q9BYT3)
Chain of STK33 (human) (Q9BYT3 whole entry, looked up): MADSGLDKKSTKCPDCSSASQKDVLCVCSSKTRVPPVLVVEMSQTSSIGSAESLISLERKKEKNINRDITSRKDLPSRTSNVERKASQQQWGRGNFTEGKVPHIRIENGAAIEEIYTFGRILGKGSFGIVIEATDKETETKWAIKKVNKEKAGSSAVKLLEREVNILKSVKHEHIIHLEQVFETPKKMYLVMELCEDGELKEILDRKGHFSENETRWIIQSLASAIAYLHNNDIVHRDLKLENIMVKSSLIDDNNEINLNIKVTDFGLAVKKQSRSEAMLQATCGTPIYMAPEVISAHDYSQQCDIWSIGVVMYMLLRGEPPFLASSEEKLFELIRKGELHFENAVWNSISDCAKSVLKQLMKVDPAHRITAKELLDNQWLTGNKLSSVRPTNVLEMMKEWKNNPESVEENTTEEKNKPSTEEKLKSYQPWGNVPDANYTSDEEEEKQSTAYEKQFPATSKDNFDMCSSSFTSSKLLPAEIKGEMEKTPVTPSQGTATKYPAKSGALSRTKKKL

TESK1 (human) = TESK1 (human) (UniProt Q15569)
[3] = test system: TGFBR1 (human), P36897 [T204D]
TLK1 (human) = TLK1 (human) (UniProt Q9UKI8)
TSSK1B (human) = TSSK1B (human) (UniProt Q9BXA7)
TTBK1 (human) = TTBK1 (human) (UniProt Q5TCY1)
TTBK2 (human) = TTBK2 (human) (UniProt Q6IQ55)
ULK1 (human) = ULK1 (human) (UniProt O75385)
ULK2 (human) = ULK2 (human) (UniProt Q8IYT8)
Chain of ULK2 (human) (Q8IYT8 whole entry, looked up): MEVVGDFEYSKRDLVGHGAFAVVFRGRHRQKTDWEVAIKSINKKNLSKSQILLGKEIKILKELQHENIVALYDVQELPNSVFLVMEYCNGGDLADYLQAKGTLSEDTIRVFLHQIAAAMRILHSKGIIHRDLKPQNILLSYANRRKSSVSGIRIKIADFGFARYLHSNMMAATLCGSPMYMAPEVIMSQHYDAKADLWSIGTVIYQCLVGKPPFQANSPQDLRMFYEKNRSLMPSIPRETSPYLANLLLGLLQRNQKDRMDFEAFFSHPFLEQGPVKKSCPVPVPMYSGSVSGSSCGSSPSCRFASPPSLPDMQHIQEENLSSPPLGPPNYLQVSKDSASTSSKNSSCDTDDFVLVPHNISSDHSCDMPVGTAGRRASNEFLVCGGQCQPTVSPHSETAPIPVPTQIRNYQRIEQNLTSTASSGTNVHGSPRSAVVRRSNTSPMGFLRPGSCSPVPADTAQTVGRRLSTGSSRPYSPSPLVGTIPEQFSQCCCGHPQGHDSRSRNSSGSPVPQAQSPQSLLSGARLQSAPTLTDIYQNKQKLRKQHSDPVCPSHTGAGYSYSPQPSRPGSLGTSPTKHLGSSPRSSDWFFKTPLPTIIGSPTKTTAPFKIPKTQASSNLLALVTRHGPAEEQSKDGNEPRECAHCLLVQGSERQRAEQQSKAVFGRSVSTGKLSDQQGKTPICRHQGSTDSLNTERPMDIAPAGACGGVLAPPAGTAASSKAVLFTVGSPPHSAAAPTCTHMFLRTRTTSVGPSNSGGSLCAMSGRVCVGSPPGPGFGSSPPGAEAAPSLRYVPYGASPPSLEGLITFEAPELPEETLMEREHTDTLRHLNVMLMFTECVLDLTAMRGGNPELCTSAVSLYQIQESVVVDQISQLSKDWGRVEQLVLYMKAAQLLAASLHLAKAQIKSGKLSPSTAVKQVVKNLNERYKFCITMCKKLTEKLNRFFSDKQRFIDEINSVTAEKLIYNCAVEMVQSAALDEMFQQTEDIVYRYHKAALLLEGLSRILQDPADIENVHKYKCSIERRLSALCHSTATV

WNK1 (human) = WNK1 (human) (UniProt Q9H4A3)
ZAP70 (human) = ZAP70 (human) (UniProt P43403)
CDK9 CCNT1 (human) = CDK9 CCNT1 (human) (UniProt P50750+O60563); conditions: compound 0.1 µM

Chain of MAP4K3 (human) (Q8IVH8 whole entry, looked up): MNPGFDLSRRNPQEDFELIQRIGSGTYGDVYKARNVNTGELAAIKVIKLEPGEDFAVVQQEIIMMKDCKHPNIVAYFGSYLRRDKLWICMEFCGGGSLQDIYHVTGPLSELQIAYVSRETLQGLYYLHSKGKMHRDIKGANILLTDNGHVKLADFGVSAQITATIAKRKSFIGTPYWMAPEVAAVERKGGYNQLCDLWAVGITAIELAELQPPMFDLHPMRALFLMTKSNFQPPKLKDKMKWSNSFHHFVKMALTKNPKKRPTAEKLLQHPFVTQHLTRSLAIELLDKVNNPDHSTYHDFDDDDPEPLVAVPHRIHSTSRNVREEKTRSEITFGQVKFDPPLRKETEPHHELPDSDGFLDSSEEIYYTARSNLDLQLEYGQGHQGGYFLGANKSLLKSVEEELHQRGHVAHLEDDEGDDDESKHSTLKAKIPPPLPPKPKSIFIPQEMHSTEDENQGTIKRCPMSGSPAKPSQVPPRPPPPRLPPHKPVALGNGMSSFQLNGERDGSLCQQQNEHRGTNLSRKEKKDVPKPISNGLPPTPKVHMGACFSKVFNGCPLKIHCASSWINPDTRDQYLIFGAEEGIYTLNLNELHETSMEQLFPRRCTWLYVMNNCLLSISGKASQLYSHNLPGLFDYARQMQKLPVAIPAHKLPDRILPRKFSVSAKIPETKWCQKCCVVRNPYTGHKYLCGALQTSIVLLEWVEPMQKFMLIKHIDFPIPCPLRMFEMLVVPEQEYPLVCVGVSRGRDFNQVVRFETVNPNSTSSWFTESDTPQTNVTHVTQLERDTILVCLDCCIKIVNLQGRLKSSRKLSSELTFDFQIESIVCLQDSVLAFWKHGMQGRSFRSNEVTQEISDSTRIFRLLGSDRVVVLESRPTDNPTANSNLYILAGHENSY
Chain of IRAK1 (human) (P51617 whole entry, looked up): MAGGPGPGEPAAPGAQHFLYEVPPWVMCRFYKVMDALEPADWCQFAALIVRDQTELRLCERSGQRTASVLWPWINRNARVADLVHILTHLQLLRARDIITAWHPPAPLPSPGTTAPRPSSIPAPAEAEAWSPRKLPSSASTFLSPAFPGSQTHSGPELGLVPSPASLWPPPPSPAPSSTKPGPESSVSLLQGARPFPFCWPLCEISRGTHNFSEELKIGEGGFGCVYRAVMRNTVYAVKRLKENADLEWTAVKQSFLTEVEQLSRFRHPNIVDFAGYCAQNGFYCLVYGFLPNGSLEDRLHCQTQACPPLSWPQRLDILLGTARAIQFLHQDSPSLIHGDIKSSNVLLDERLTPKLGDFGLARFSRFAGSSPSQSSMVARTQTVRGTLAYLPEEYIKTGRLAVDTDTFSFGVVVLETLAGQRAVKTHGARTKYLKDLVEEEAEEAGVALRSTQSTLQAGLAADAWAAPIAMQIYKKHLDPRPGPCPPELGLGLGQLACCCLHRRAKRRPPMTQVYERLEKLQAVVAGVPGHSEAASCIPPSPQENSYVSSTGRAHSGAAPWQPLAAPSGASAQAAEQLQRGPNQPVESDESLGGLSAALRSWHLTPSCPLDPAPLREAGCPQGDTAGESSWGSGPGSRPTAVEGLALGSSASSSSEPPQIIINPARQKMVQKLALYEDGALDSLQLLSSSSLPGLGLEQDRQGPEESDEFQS

residual activity (ABL1 (human); compound 1.0 µM): 96% | residual activity (ABL1 (human); compound 10.0 µM): 101% | residual activity (CSNK1G2 (human); compound 1.0 µM): 99% | residual activity (CSNK1G2 (human); compound 10.0 µM): 90% | residual activity (DDR2 (human); compound 1.0 µM): 102% | residual activity (DDR2 (human); compound 10.0 µM): 102% | residual activity (EIF2AK3 (human); compound 1.0 µM): 86% | residual activity (EIF2AK3 (human); compound 10.0 µM): 101% | residual activity (IRAK1 (human); compound 1.0 µM): 96% | residual activity (IRAK1 (human); compound 10.0 µM): 101% | residual activity (MAP4K3 (human); compound 1.0 µM): 100% | residual activity (MAP4K3 (human); compound 10.0 µM): 110% | residual activity (MAP4K5 (human); compound 1.0 µM): 109% | residual activity (MAP4K5 (human); compound 10.0 µM): 115% | residual activity (MAPK7 (human); compound 1.0 µM): 98% | residual activity (MAPK7 (human); compound 10.0 µM): 107% | residual activity (MYLK (human); compound 1.0 µM): 94% | residual activity (MYLK (human); compound 10.0 µM): 94% | residual activity ([1]; compound 1.0 µM): 91% | residual activity ([1]; compound 10.0 µM): 112% | residual activity (PDGFRA (human); compound 1.0 µM): 85% | residual activity (PDGFRA (human); compound 10.0 µM): 82% | residual activity ([2]; compound 1.0 µM): 106% | residual activity ([2]; compound 10.0 µM): 102% | residual activity (PRKCG (human); compound 1.0 µM): 108% | residual activity (PRKCG (human); compound 10.0 µM): 112% | residual activity (PTK6 (human); compound 10.0 µM): 114% | residual activity (SIK2 (human); compound 1.0 µM): 83% | residual activity (SIK2 (human); compound 10.0 µM): 91% | residual activity (SIK3 (human); compound 1.0 µM): 91% | residual activity (SIK3 (human); compound 10.0 µM): 94% | residual activity (STK16 (human); compound 1.0 µM): 98% | residual activity (STK16 (human); compound 10.0 µM): 100% | residual activity (STK24 (human); compound 1.0 µM): 82% | residual activity (STK24 (human); compound 10.0 µM): 84% | residual activity (STK33 (human); compound 1.0 µM): 128% | residual activity (STK33 (human); compound 10.0 µM): 119% | residual activity (TESK1 (human); compound 1.0 µM): 77% | residual activity (TESK1 (human); compound 10.0 µM): 77% | residual activity ([3]; compound 1.0 µM): 105% | residual activity ([3]; compound 10.0 µM): 115% | residual activity (TLK1 (human); compound 1.0 µM): 95% | residual activity (TLK1 (human); compound 10.0 µM): 106% | residual activity (TSSK1B (human); compound 1.0 µM): 89% | residual activity (TSSK1B (human); compound 10.0 µM): 100% | residual activity (TTBK1 (human); compound 1.0 µM): 106% | residual activity (TTBK1 (human); compound 10.0 µM): 118% | residual activity (TTBK2 (human); compound 10.0 µM): 101% | residual activity (ULK1 (human); compound 1.0 µM): 104% | residual activity (ULK1 (human); compound 10.0 µM): 103% | residual activity (ULK2 (human); compound 1.0 µM): 106% | residual activity (ULK2 (human); compound 10.0 µM): 105% | residual activity (WNK1 (human); compound 1.0 µM): 104% | residual activity (WNK1 (human); compound 10.0 µM): 106% | residual activity (ZAP70 (human); compound 1.0 µM): 110% | residual activity (ZAP70 (human); compound 10.0 µM): 116%
SMILES: Nc1cccc2c1CN(C1CCC(=O)NC1=O)C2=O (stereo not given)

residual activity (ABL1 (human); compound 0.1 µM): 26% | residual activity (CDK9 CCNT1 (human)): 100% | residual activity (CSNK1G2 (human); compound 0.1 µM): 107% | residual activity (DDR2 (human); compound 0.1 µM): 20% | residual activity (EIF2AK3 (human); compound 0.1 µM): 111% | residual activity (IRAK1 (human); compound 0.1 µM): 84% | residual activity (MAP4K3 (human); compound 0.1 µM): 85% | residual activity (MAP4K5 (human); compound 0.1 µM): 70% | residual activity (MAPK7 (human); compound 0.1 µM): 90% | residual activity (MYLK (human); compound 0.1 µM): 97% | residual activity ([1]; compound 0.1 µM): 102% | residual activity (PDGFRA (human); compound 0.1 µM): 101% | residual activity ([2]; compound 0.1 µM): 102% | residual activity (PRKCG (human); compound 0.1 µM): 103% | residual activity (PTK6 (human); compound 0.1 µM): 31% | residual activity (SIK2 (human); compound 0.1 µM): 51% | residual activity (SIK3 (human); compound 0.1 µM): 92% | residual activity (STK16 (human); compound 0.1 µM): 108% | residual activity (STK24 (human); compound 0.1 µM): 102% | residual activity (STK33 (human); compound 0.1 µM): 105% | residual activity (TESK1 (human); compound 0.1 µM): 94% | residual activity ([3]; compound 0.1 µM): 90% | residual activity (TLK1 (human); compound 0.1 µM): 107% | residual activity (TSSK1B (human); compound 0.1 µM): 115% | residual activity (TTBK2 (human); compound 0.1 µM): 94% | residual activity (ULK1 (human); compound 0.1 µM): 99% | residual activity (ULK2 (human); compound 0.1 µM): 109% | residual activity (WNK1 (human); compound 0.1 µM): 99% | residual activity (ZAP70 (human); compound 0.1 µM): 122%
SMILES: CN1CCN(CCOc2cc(OC3CCOCC3)c3c(Nc4c(Cl)ccc5c4OCO5)ncnc3c2)CC1
